Measurements taken from patent US20240165099A1, “METHODS FOR THE TREATMENT AND PREVENTION OF DISEASES OR INFECTIONS WITH MCP-1 INVOLVEMENT BY ADMINISTRATION OF TAFENOQUINE” (60 DEGREES PHARMACEUTICALS LLC, priority 2022, published 2024).

Assays:
[1] = tested on: Pneumocystis; conditions: mice; Bartlett et al. 1991; cited from earlier work
[2] = tested on: Babesia; conditions: mice; single doses for tafenoquine; cited from earlier work
[3] = tested on: COVID-19 disease; assay: Phase II clinical trial, time to clinical recovery in mild-moderate COVID-19; assay type: in vivo, human
Description: Laboratory endpoint and patient-level individual symptom data were collected in that study, have not been reported elsewhere, and form the basis for surprising findings about the therapeutic and mechanistic effects of tafenoquine described herein.
Longitudinal aggregate symptom data for individual patients from Dow and Smith (2022) were examined to determine the number of days required before each patients reported an aggregate symptom score of 2 for four days of more for the first time. This endpoint was not included as a pre-specified analysis in the original study design, and was only recently confirmed to be an endpoint of interest to regulars in mild-moderate COVID-19 disease in standard risk patients. […] A survival curve was generated, and data were analyzed using Graphpad Prism. […] At Day 28, which was the last day of the study, the proportion of patients with persistent COVID-19 symptoms was lower in the tafenoquine arm.

[4] = tested on: total anti SARS-CoV-2 spike protein antibody; assay type: in vivo, human
[5] = in vivo; cited from earlier work
[6] = tested on: SARS-CoV-2; assay type: cell-based; conditions: calculated relative to the CC50 for the 4-day test
[7] = tested on: blood stages of P. falciparum; conditions: Baird et al. 2002; McCarthy et al. 2019; cited from earlier work
[8] = doses of up to 1200 mg over three days; Green et al 2014; cited from earlier work
[9] = tested on: Monocyte chemotactic protein 1 (MCP-1); assay type: in vivo, human
[10] = tested on: COVID-19 disease; conditions: mild-moderate COVID-19; exploratory analyses; P<0.02; Dow and Smith 2022; cited from earlier work
[11] = tested on: SARS-CoV-2; assay: Nasopharyngeal viral load change from baseline, regression analysis; assay type: in vivo, human; conditions: Log10 viral copy number/ml; baseline through Day 5; P 0.8650
Method: NP swabs were collected at Baseline and Day 5 and Log10 viral copy number/ml was determined utilizing the standard commercially available assay from Eurofins. Only samples from patients where valid baseline and Day 5 results were obtained were analyzed. Samples with values below the dynamic range of the assay were assigned a value equivalent to the detection limit. Samples with […] were assigned a value equivalent to half the detection limit. Viremia change from baseline was calculated by subtracting log 10 Day 5 copy number from the log 10 baseline copy number. Log10 Baseline and change from baseline values were used in the analyses.
Multivariate regression analysis (performed utilizing the standard built-in program in Graphpad Prism 9.3.1) was used to analyze the following dependent variables: Change in NP viral load from baseline through Day 5 (Regression 1) and total anti SARS-CoV-2 antibody change from baseline through Day 14 (Regression 2). The dependent variable data were tested to ensure that they passed at least three of four tests of normality (Anderson-Darling, D'Agostino-Pearson, Shapiro-Wilk and Kolmogorov-Smirnov tests) according to the standard built-in programs in GraphPad. The same independent variables described in Example 6 were utilized. […]

[12] = in vitro; conditions: African green monkey, CC50, 4-day test, mock infected Vero E6 cells
[13] = tested on: Vero E6 cells; conditions: 4-day test, mock infected Vero E6 cells
[14] = predicted Day 5 values, all group comparisons vs placebo, independent of vaccination or baseline MCP-1

Structure (SMILES): COc1cc(NC(C)CCCN)c2ncccc2c1 (centres unmarked) [Primaquine]
- cure of Pneumocystis infections [1]: must be combined with clindamycin
- dose that cleared Babesia parasitemia [2]: 100 mg/kg

Structure (SMILES): COc1cc(C)c2c(Oc3cccc(C(F)(F)F)c3)c(OC)cc(NC(C)CCCN)c2n1 (centres unmarked) [Tafenoquine]
- median time to clinical recovery ([3]; COVID-19 patients, 200 mg on Days 1, 2, 3 and 10, sustained recovery for four days or more, placebo 16 days): 13 days
- proportion of patients with persistent COVID-19 symptoms at Day 28 ([3]; tafenoquine arm vs placebo, Day 28): lower
- effect on total anti-SARS-CoV-2 antibody generation ([4]; P=0.546 as printed): did not affect
- Regression 2: Antibodies CFB (unvaccinated), Beta for Treatment ([4]; in vivo): −0.671/
- half-life [5]: 14 days
- selectivity index [6]: 14.3
- activity against the blood stages of P. falciparum [7]: quite effective
- effect on upper limit of 90% confidence interval of the QTC interval [8]: not found to increase
- cure of Pneumocystis infections [1]: can be administered as monotherapy to cure
- dose that cleared Babesia parasitemia [2]: 20 mg/kg
- Regression 1: MCP1 Day 5 CFB (Multivariate), Beta for Treatment (TQ = 1, PL = 0) ([9]; Day 5 value − Baseline value, P 0.0093): −74.4/
- Regression 2: MCP1 Day 14 CFB for high baseline MCP1, Beta for Treatment ([9]; baseline MCP-1 exceeding 350 units/ml, P 0.3304): 78.9/
- Regression 3: MCP1 Day 14 CFB for low baseline MCP1, Beta for Treatment ([9]; baseline MCP-1 less than 350 units/ml, P 0.2356): −35.0/
- Regression: MCP1 Day 14 CFB (rank-transformed), Beta for Treatment ([9]; human, in vivo): 0.584//
- reduction in Day 5 MCP-1 (absolute) [9, 14]: at least 41
- reduction in Day 5 MCP-1 (percent) [9, 14]: ≥ 10%
- Regression 1: MCP1 Day 5 (Univariate), Beta for Treatment ([9]; univariate, P 0.2548): −45.2/
- recovery from fever, cough and shortness of breath [10]: accelerate recovery
- Regression 1: NP Viral Load CFB, Beta for Treatment (TQ = 1, PL = 0) [11]: −0.0735/

Structure (SMILES): CCN(CCO)CCCC(C)Nc1ccnc2cc(Cl)ccc12 (centres unmarked) [Hydroxychloroquine]
- CC50 [12]: ~55 µM
- CC50 [13]: 67 µM
